For assay [1], the target named is Cyclin-dependent kinase-like 1 (Homo sapiens) (UniProt Q00532).
The target in assay [2] is Serine/threonine-protein kinase 26 (Homo sapiens) (UniProt Q9P289).
In assay [3] the target is Tyrosine-protein kinase JAK1 (Homo sapiens) (UniProt P23458).
The target of assay [4] is T1, Serine/threonine-protein kinase VRK3 (Homo sapiens) (UniProt Q8IV63).
T1 sequence (whole entry): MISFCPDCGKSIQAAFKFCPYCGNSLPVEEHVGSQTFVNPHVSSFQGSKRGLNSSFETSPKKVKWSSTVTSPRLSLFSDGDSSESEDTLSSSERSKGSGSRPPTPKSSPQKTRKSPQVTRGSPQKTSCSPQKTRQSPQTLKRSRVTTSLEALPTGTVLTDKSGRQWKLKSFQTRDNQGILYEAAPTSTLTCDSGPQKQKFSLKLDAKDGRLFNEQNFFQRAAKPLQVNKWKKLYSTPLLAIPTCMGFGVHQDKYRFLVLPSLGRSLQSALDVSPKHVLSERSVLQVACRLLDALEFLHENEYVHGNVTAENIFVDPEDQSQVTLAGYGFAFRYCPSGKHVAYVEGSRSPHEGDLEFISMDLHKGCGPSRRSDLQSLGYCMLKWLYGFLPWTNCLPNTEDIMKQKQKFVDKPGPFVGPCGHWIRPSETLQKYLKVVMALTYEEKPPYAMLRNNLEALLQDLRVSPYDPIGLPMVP

Assay [5] deals with Serine/threonine-protein kinase PAK 6 (Homo sapiens) (UniProt Q9NQU5).
Chain of Serine/threonine-protein kinase PAK 6 (Homo sapiens) (Q9NQU5 whole entry, looked up): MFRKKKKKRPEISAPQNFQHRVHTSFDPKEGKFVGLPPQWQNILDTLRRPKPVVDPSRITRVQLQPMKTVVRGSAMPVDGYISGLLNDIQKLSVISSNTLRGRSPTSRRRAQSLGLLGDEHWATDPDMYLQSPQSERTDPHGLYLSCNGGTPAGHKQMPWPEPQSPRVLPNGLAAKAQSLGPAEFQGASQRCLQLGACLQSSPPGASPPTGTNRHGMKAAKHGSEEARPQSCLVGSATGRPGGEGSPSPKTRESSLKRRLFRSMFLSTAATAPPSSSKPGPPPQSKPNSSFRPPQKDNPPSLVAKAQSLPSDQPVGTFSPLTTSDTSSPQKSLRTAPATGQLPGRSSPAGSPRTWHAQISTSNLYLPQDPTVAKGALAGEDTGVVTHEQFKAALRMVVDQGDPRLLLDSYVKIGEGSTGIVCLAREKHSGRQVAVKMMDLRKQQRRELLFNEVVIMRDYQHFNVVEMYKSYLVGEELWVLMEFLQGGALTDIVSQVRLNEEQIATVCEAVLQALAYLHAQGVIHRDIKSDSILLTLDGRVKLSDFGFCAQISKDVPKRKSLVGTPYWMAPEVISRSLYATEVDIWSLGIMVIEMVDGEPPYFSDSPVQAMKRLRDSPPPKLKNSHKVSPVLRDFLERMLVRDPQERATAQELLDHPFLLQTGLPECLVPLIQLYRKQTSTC
The target of assay [6] is T2, Serine/threonine-protein kinase 17A (Homo sapiens) (UniProt Q9UEE5).
T2 sequence (whole entry): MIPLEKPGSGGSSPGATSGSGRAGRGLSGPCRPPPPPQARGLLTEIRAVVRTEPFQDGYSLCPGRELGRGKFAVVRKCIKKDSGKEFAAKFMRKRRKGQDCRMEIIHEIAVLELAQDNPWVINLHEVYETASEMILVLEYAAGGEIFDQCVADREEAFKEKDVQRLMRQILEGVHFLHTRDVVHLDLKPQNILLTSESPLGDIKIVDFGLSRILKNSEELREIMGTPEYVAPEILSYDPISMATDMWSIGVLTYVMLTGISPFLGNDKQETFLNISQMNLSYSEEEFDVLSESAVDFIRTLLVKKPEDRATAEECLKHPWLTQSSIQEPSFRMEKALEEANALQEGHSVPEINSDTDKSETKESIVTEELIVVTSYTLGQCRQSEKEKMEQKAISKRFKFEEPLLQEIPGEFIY

For assay [7], the target named is Serine/threonine-protein kinase pim-2 (Homo sapiens, UniProt Q9P1W9).
Chain of Serine/threonine-protein kinase pim-2 (Q9P1W9 whole entry, looked up): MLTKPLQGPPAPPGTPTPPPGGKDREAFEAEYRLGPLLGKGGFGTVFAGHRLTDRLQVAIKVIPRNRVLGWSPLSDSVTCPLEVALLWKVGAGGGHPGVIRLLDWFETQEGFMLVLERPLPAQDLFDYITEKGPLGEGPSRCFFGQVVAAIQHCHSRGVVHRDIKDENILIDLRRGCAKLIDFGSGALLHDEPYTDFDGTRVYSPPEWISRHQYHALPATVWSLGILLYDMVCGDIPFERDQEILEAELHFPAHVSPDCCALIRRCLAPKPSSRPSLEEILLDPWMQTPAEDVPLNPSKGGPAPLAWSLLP
For assay [8], the target named is Serine/threonine-protein kinase PLK1 (Homo sapiens) (UniProt P53350).
Assay [9] deals with Casein kinase I isoform gamma-3 (Homo sapiens) (UniProt Q9Y6M4).
The target of assay [10] is Calcium/calmodulin-dependent protein kinase type II subunit alpha (Homo sapiens) (UniProt Q9UQM7).
Assay [11] addresses Dual specificity protein kinase CLK3 (Homo sapiens) (UniProt P49761).
For assay [12], the target named is Serine/threonine-protein kinase Chk2 (Homo sapiens, UniProt O96017).
Chain of Serine/threonine-protein kinase Chk2 (O96017 whole entry): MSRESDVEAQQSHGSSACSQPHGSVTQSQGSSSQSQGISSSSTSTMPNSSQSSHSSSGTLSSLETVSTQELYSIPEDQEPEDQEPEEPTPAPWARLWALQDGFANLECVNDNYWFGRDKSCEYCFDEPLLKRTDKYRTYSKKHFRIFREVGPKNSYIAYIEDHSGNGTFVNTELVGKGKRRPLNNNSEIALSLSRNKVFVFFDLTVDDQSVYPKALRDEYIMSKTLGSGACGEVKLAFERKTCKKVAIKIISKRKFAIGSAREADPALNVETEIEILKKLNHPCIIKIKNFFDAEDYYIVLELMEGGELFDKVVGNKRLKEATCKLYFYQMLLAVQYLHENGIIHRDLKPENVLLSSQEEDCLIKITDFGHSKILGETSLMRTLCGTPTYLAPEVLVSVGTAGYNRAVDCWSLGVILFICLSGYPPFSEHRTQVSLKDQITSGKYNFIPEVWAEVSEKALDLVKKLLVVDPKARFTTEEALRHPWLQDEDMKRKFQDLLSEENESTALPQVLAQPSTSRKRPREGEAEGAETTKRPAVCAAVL
Assay [13] addresses Serine/threonine-protein kinase pim-1 (Homo sapiens) (UniProt P11309).
The target in assay [14] is Serine/threonine-protein kinase PAK 5 (Homo sapiens) (UniProt Q9P286).
Assay [15] has as its target Casein kinase I isoform gamma-2 (Homo sapiens) (UniProt P78368).
Assay [16] concerns the target Mitogen-activated protein kinase 6 (Homo sapiens) (UniProt Q16659).
Assay [17] concerns the target Serine/threonine-protein kinase 10 (Homo sapiens) (UniProt O94804).
Assay [18] has as its target T3, Serine/threonine-protein kinase PLK4 (Homo sapiens) (UniProt O00444).
T3 sequence (whole entry): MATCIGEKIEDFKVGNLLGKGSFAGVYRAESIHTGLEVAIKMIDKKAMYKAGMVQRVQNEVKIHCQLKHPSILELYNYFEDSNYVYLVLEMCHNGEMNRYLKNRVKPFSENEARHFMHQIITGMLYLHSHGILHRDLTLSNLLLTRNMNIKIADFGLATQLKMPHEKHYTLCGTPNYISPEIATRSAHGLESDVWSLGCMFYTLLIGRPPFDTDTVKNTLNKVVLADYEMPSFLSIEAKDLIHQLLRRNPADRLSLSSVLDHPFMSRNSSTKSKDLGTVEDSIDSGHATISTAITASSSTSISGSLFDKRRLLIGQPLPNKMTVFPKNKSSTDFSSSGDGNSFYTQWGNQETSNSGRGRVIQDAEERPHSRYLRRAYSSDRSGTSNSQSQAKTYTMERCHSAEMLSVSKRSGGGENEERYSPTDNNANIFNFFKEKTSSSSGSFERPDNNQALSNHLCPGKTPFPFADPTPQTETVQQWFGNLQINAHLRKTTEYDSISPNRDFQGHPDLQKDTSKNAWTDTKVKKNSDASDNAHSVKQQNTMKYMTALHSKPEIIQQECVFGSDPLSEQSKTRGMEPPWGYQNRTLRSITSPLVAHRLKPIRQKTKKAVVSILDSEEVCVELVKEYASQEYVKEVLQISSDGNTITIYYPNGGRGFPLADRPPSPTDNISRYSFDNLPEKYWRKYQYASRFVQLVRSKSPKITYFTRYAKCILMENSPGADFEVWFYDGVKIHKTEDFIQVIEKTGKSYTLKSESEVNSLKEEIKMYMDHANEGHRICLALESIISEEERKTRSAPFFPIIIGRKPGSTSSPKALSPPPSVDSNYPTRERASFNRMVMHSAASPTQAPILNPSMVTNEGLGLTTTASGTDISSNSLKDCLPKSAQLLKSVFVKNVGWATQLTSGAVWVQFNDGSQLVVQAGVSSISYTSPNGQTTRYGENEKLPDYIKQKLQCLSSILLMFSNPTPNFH

The target of assay [19] is 5'-AMP-activated protein kinase catalytic subunit alpha-2 (Homo sapiens) (UniProt P54646).
Chain of 5'-AMP-activated protein kinase catalytic subunit alpha-2 (Homo sapiens) (P54646 whole entry, looked up): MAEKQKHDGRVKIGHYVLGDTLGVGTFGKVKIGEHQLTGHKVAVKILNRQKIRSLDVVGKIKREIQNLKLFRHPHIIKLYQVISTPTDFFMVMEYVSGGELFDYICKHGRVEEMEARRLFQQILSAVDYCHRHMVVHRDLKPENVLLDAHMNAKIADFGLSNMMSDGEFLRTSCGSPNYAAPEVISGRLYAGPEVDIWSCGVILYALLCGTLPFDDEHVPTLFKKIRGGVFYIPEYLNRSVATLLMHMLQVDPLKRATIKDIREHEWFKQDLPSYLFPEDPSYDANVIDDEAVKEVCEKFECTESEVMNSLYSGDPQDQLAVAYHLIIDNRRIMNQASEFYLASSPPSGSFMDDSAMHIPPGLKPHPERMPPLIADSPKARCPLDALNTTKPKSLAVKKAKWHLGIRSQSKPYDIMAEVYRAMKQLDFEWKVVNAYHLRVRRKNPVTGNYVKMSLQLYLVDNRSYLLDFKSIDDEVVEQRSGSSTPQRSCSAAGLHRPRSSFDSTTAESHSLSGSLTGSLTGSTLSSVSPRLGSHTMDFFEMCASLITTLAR
In assay [20] the target is Cyclin-dependent kinase 2 (Homo sapiens, UniProt P24941).

Chain of Serine/threonine-protein kinase 26 (Homo sapiens) (Q9P289 2-416 limits assumed): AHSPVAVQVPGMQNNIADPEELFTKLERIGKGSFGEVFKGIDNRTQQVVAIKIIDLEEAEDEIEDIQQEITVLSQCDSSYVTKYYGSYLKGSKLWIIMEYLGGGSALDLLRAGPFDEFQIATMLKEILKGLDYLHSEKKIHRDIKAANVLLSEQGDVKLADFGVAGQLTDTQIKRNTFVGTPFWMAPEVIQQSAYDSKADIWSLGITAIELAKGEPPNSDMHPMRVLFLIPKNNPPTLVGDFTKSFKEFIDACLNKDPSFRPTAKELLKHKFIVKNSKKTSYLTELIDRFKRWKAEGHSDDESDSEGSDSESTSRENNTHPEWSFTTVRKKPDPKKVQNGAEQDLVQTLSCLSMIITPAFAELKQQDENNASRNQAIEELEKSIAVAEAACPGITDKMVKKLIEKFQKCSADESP
Chain of Mitogen-activated protein kinase 6 (Homo sapiens) (Q16659 whole entry): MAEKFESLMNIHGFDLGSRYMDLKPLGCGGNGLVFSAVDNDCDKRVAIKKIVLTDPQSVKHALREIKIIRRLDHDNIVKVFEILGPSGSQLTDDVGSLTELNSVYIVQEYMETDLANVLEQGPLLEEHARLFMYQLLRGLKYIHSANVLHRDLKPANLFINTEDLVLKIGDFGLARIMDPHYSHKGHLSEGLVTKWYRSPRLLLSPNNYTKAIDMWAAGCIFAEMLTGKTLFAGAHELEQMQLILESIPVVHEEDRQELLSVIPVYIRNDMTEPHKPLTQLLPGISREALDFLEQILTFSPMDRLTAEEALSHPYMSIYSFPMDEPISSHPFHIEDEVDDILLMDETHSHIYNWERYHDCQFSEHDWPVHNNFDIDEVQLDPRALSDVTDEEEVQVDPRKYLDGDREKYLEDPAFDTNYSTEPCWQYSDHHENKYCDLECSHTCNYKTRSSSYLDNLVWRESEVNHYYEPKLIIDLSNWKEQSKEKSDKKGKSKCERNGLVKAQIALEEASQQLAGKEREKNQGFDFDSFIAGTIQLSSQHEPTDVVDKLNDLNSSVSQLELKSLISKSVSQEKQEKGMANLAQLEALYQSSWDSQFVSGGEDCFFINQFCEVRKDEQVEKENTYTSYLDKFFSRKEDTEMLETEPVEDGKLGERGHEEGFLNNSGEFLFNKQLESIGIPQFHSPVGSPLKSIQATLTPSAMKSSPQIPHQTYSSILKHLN
Chain of Serine/threonine-protein kinase pim-1 (Homo sapiens) (P11309 whole entry, looked up): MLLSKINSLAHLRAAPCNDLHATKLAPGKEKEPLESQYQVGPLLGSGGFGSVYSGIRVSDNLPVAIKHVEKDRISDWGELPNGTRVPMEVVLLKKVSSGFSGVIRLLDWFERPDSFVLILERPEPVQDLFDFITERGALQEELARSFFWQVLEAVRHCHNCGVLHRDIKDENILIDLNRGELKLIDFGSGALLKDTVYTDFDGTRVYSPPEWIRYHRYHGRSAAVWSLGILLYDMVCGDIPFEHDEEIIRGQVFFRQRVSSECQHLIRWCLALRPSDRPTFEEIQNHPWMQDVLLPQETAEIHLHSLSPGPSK
Chain of Serine/threonine-protein kinase 10 (Homo sapiens) (O94804 whole entry, looked up): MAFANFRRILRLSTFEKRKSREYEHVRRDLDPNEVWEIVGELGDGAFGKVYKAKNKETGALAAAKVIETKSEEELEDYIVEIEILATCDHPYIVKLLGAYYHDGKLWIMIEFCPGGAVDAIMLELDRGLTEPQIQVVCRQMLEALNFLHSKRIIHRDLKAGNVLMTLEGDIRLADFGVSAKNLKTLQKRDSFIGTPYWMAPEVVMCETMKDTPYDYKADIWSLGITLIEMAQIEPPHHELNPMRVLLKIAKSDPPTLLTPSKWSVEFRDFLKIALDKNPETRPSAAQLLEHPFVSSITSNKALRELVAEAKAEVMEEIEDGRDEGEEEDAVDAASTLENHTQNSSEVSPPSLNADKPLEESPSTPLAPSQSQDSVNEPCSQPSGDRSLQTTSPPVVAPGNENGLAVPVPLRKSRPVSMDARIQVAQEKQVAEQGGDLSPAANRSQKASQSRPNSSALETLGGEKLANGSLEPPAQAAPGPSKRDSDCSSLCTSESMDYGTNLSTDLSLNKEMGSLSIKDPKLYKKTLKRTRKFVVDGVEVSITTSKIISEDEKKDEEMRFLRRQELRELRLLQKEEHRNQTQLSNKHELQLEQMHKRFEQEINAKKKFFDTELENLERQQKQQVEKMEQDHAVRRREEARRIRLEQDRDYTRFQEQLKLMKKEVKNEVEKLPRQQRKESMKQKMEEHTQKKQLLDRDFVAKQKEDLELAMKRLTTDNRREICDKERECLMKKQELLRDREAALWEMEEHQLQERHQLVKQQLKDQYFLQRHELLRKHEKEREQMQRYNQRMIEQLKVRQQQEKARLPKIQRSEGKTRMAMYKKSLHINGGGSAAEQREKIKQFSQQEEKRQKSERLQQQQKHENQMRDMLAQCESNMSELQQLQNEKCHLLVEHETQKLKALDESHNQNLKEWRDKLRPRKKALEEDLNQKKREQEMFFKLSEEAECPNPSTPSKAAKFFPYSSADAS
Chain of Casein kinase I isoform gamma-2 (Homo sapiens) (P78368 whole entry, looked up, canonical isoform): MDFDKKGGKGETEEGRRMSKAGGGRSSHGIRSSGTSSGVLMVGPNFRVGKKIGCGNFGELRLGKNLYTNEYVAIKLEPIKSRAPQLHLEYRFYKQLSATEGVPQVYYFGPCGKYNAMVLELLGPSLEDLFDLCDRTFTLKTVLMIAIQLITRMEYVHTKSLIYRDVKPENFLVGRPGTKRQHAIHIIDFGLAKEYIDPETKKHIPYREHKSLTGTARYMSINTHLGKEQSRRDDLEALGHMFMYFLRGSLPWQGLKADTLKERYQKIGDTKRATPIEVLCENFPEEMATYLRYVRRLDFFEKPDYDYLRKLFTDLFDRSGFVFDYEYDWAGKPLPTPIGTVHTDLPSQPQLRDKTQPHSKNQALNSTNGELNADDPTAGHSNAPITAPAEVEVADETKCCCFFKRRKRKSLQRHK

Consider `Brc1c(Br)c(Br)c2[nH]nnc2c1Br` [TETRABROMOBENZOTRIAZOLE], for which the shift in melting temperature (ΔTm) (usually the shift of the melting midpoint relative to a reference) in assay [1] is -0.4 °C; in [2], 1.3 °C; in assay [3], 0.7 °C; in assay [4] it was -1.2 °C; in [5], -0.1 °C; in assay [6], 4.1 °C. The ΔTm in assay [7] was 4.2 °C; in assay [8], 2.3 °C; in assay [9], -0.3 °C; in [10] it was 1.2 °C; in assay [11] it was 2 °C; in assay [12], 0.5 °C. Also, the ΔTm in [13] is 3.7 °C; in assay [14], 0.2 °C; in [15] it was 0.3 °C; in [16], -0.2 °C; in assay [17], 0 °C; in assay [18], 4.4 °C. For the same compound, the ΔTm in assay [19] was 0.4 °C.

As for `NS(=O)(=O)c1ccc(Nc2nc(OCC3CCCCC3)c3nc[nH]c3n2)cc1`, the shift in melting temperature (ΔTm) in [1] was 0.6 °C; in [2], 5.7 °C; in [3], 9.5 °C; in [4], 4.7 °C; in [5], 1.7 °C; in [6] it was 1.8 °C. The thermal shift (ΔTm) turned out to be 0.6 °C in [7]; 5.1 °C in [8]; 2.2 °C in assay [9]; 0.6 °C in assay [10]; 1.3 °C in [11]; 2.5 °C in [12]. The thermal shift (ΔTm) in assay [13] was 0.4 °C; in [14] it was 2.7 °C; in assay [15], 2.5 °C; in assay [16], 1 °C; in [17] it was 4.1 °C; in [18], 1.1 °C. Besides, the ΔTm in assay [19] is 1.9 °C.

Take `CC[C@H](CO)Nc1nc(NCc2ccccc2)c2ncn(C(C)C)c2n1` [SELICICLIB]: the ΔTm was 0.2 °C in [1]; 0.3 °C in [2]; 0.1 °C in assay [3]; 0.6 °C in [4]; 0.5 °C in assay [5]; -0.5 °C in [6]. Also, the ΔTm in assay [7] was 0.3 °C; in assay [8], 1 °C; in [11], 0.8 °C; in assay [12], 0 °C; in [13], -1 °C; in assay [14] it was 0.6 °C. For the same compound, the ΔTm in assay [16] is -0.4 °C; in assay [18], 0.3 °C; in assay [19], 0.4 °C.

Regarding `CN(C)CCCn1cc(C2=C(c3c[nH]c4ccccc34)C(=O)NC2=O)c2ccccc21` [GF-109203], the thermal shift (ΔTm) was found to be 1.7 °C in [20]; 0.7 °C in assay [1]; 1.7 °C in [2]; 1.5 °C in assay [3]; 0 °C in [4]; 2.4 °C in [5]. Moreover, the thermal shift (ΔTm) in assay [6] stood at 1.3 °C; in [7] it was 5.2 °C; in [8] it was 1 °C; in [9], 0.3 °C; in assay [10], 2.4 °C; in assay [11], 2.7 °C. The ΔTm in assay [12] is 7.1 °C; in assay [14], 1 °C; in assay [15], 0.5 °C; in [16] it was -0.2 °C; in [17], 6.7 °C; in assay [18] it was 3 °C. In addition, the thermal shift (ΔTm) in assay [19] was determined as 2.6 °C.

For `Cn1cnc2c(NCc3ccccc3)nc(NCCO)nc21` [OLOMOUCINE], the shift in melting temperature (ΔTm) is 0 °C in [1]; 0 °C in assay [2]; 0 °C in assay [3]; 0.1 °C in [4]; -0.5 °C in assay [5]; -0.1 °C in assay [6]. For the same compound, the shift in melting temperature (ΔTm) was 0.1 °C in assay [7]; -0.9 °C in assay [8]; 0 °C in assay [9]; -0.3 °C in [10]; -0.1 °C in assay [11]; -0.6 °C in assay [12]. Also, the thermal shift (ΔTm) in assay [13] was -1 °C; in assay [14] it was -0.1 °C; in assay [15], 0.5 °C; in assay [16], 0.2 °C; in assay [17], 0.5 °C; in assay [18] it was 0.2 °C. Besides, the ΔTm in assay [19] was found to be 0.2 °C.

In the case of `CCN1/C(=C/C(C)=O)Sc2ccc(OC)cc21`, the ΔTm was 0.1 °C in [20]; 0.4 °C in assay [1]; 0.7 °C in assay [2]; -0.4 °C in [3]; 0.1 °C in assay [4]; -0.9 °C in assay [5]. Also, the ΔTm in [6] is 0.4 °C; in assay [7], 3.1 °C; in [8], 0.3 °C; in assay [10] it was -0.1 °C; in assay [12], 0.1 °C; in [13], 6.3 °C. The ΔTm in assay [14] is 0 °C; in assay [16], 0 °C; in [17], 0.4 °C; in assay [18] it was -0.2 °C; in assay [19], -0.1 °C.

As to `COc1ccc2c(c1)/C(=C/c1cnc[nH]1)C(=O)N2` [SU-9516], the ΔTm in assay [1] turned out to be 5.8 °C; in assay [2], 2 °C; in assay [3], 8.4 °C; in assay [4], 0.3 °C; in assay [5], 2.3 °C; in assay [6], 9.8 °C. The ΔTm in [7] amounted to 1.7 °C; in assay [8], 0.7 °C; in [9] it was 0.5 °C; in assay [10] it was 1 °C; in assay [11], 1.3 °C; in assay [12], 1.6 °C. Further, the shift in melting temperature (ΔTm) in assay [13] was 1.3 °C; in [14] it was 1.2 °C; in [15], 0.7 °C; in assay [16], 0.2 °C; in assay [17], 3.5 °C; in [18], 4.9 °C. Further, the ΔTm in [19] worked out at 4.1 °C.

Source of the values: ChEMBL document CHEMBL1145498, “A systematic interaction map of validated kinase inhibitors with Ser/Thr kinases” (Proc Natl Acad Sci U S A, 2007).
